Experimental data: ChEMBL document CHEMBL4138088, “Novel 1-(7-ethoxy-1-benzofuran-2-yl) substituted chalcone derivatives: Synthesis, characterization and anticancer activity” (Eur J Med Chem, 2017)
Activity calls are given as the source filed them. No cut-off for these calls is given here.

What was measured:
Type in all cases: functional, cell-based
[1] = test system: CT26.WT; experiment: Antiproliferative activity against mouse CT26.WT cells after 48 hrs by MTT assay
[2] = test system: SW-620; experiment: Antiproliferative activity against human SW620 cells after 48 hrs by MTT assay; conditions: SW-620, 48 h
[3] = test system: HCT-116; experiment: Antiproliferative activity against human HCT116 cells after 48 hrs by MTT assay; conditions: HCT-116, 48 h
[4] = test system: MCF7; experiment: Growth inhibition of human MCF7 cells at 20 uM after 72 hrs by SRB assay
[5] = test system: PC-3; experiment: Growth inhibition of human PC3 cells at 20 uM after 72 hrs by SRB assay
[6] = test system: MCF7; experiment: Growth inhibition of human MCF7 cells at 20 uM after 72 hrs by ATP bioluminescence assay
[7] = test system: PC-3; experiment: Growth inhibition of human PC3 cells at 20 uM after 72 hrs by ATP bioluminescence assay

Compound: COc1ccccc1/C=C/C(=O)c1ccc(O)c(O)c1
- IC50 [1]: 3.36 µM
- IC50 [2]: 11.7 µM
- IC50 [3]: 25.9 µM

Compound: CCOc1cccc2cc(C(=O)/C=C/c3cc(OC)c(OC)cc3OC)oc12
- growth inhibition (GI) [4]: Active
- growth inhibition (GI) [5]: Active
- growth inhibition (GI) [6]: Active
- growth inhibition (GI) [7]: Active
